According to US11339130B1 (Blade Therapeutics, Inc., priority 2016, dated 2022):
Like-named read-outs stand apart in the source and are kept apart here. Blank lines part the entries; values can stand above or below the compound they belong to.

Legend:
[1] = system: Calpain activity in SH-SY5Y cells (SBDP-150); test: SH-SY5Y Spectrin western blot assay (SBDP-150 breakdown product, A23187-induced); type: cell-based; conditions: Homo sapiens, SH-SY5Y cells, read-out: SH-SY5Y Spectrin IC50
[2] = system: Calpain activity in SH-SY5Y cells; test: SH-SY5Y + AMC fluorescence assay (Suc-LLVY-AMC substrate); type: cell-based; conditions: read-out: SH-SY5Y + AMC IC50
Human Calpain 1/NS1 = target: T1, Human Calpain 1/NS1 (Homo sapiens, UniProt P07384); test: Calpain inhibition continuous fluorescence (FRET) assay, Human Calpain 1/NS1; type: biochemical; conditions: read-out: Human Calpain 1/NS1 IC50
T1 sequence (P07384 1-714): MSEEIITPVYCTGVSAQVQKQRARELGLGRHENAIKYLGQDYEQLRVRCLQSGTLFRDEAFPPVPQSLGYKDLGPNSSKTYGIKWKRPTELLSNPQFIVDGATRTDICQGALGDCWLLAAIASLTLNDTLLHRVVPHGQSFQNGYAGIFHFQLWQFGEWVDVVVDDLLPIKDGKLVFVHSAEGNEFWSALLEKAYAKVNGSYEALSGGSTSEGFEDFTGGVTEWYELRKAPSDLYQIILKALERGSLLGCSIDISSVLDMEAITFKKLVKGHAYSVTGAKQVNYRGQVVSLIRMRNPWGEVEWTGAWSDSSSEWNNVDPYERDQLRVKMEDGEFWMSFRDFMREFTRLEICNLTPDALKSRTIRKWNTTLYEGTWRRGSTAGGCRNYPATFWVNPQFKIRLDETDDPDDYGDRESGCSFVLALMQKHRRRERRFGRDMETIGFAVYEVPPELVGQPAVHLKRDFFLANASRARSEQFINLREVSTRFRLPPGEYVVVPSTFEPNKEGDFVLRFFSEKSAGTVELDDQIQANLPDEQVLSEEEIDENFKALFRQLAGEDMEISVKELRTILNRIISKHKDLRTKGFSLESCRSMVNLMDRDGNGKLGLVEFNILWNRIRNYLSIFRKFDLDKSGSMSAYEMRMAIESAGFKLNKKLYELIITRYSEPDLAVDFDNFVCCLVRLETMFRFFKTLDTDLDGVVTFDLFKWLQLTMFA
T1 sequence (P04632 1-268 partner): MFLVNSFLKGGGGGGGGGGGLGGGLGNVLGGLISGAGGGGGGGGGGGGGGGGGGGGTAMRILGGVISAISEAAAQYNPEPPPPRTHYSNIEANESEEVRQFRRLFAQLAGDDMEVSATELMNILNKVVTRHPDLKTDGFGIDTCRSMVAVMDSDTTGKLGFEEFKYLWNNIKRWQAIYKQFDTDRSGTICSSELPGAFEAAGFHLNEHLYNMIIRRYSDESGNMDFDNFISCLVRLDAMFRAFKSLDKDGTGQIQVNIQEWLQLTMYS
Method in brief: (§1)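 Human calpains 1, 2 and 9 preincubated with inhibitor at 25 °C in 50 mM Tris pH 7.5, 100 mM NaCl, 1 mM DTT; reaction started with 5-FAM/QXL 520 FRET peptide plus CaCl2 for activation. Fluorescence (490/520 nm) followed 10 min; rates from 1-5 min slopes fitted to 4-parameter logistic for IC50.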

Human Calpain 9/NS1 = target: T2, Human Calpain 9/NS1 (Homo sapiens, UniProt O14815); test: Calpain inhibition continuous fluorescence (FRET) assay, Human Calpain 9/NS1; type: biochemical; conditions: read-out: Human Calpain 9/NS1 IC50
T2 sequence (O14815 1-690): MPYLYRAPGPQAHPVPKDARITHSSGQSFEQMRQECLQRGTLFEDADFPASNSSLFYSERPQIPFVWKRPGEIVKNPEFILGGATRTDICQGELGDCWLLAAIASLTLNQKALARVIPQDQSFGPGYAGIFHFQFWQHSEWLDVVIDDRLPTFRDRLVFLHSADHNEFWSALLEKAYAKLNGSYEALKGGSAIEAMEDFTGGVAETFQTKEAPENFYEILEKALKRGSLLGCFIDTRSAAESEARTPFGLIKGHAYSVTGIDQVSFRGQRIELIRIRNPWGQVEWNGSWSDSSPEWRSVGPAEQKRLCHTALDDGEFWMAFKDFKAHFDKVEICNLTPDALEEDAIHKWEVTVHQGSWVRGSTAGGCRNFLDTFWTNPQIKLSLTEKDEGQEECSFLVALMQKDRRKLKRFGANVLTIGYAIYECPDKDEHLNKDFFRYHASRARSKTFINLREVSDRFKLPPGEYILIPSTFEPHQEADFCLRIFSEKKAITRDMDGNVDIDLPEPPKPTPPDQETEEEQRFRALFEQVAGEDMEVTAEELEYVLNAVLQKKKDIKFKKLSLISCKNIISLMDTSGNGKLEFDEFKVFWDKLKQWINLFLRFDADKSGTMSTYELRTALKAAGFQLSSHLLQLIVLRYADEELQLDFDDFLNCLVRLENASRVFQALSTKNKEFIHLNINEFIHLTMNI
T2 sequence (P04632 1-268 partner): T1 sequence (P04632 1-268 partner)
Method in brief: as §1

Human Calpain 2/NS1 = target: T3, Human Calpain 2/NS1 (Homo sapiens, UniProt P17655); test: Calpain inhibition continuous fluorescence (FRET) assay, Human Calpain 2/NS1; type: biochemical; conditions: read-out: Human Calpain 2/NS1 IC50
T3 sequence (P17655 1-700): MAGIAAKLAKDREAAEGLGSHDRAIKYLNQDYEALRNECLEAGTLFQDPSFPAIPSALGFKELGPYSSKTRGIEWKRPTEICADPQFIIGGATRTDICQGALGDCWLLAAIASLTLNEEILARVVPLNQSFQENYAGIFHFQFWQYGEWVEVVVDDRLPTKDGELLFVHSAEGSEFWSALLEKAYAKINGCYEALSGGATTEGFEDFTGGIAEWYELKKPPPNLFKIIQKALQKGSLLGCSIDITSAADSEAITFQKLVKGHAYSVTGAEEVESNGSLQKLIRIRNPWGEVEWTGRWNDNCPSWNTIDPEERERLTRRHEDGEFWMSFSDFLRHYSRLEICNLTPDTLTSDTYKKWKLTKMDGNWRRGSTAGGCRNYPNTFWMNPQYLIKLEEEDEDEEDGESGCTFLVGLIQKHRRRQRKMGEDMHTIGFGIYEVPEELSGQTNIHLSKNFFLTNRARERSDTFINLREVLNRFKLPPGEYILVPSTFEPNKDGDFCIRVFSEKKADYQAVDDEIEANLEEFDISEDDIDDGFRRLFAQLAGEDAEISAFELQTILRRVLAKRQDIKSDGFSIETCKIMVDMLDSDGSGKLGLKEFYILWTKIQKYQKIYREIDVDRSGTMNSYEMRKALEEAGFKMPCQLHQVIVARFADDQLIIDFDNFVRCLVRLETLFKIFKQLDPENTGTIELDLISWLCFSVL
T3 sequence (P04632 1-268 partner): T1 sequence (P04632 1-268 partner)
Method in brief: as §1

[3] = A23187-induced SBDP-150, western blot
[4] = Column D, A23187-induced SBDP-150

Structure (SMILES): Cn1cc(C(=O)NC(Cc2ccccc2)C(=O)C(N)=O)c(-c2cccc(F)c2C(F)(F)F)n1 (stereo not drawn) [Compound 512, N-(4-amino-3,4-dioxo-1-phenylbutan-2-yl)-3-(3-fluoro-2-(trifluoromethyl)phenyl)-1-methyl-1H-pyrazole-4-carboxamide]
IC50 [1, 3]: > 25 µM | IC50 [2]: < 10 µM | IC50 (Human Calpain 1/NS1): 3 to 10 µM | IC50 (Human Calpain 9/NS1): 3 to 10 µM | IC50 (Human Calpain 2/NS1): 3 to 10 µM

Structure (SMILES): Cc1cc(C(=O)N[C@@H](Cc2ccccc2)C(=O)CF)n(-c2ccccn2)n1 [Compound 478, (S)—N-(4-fluoro-3-oxo-1-phenylbutan-2-yl)-3-methyl-1-(pyridin-2-yl)-1H-pyrazole-5-carboxamide]
IC50 [1, 3]: > 25 µM | IC50 [2]: > 25 µM | IC50 (Human Calpain 1/NS1): < 3 µM | IC50 (Human Calpain 9/NS1): 3 to 10 µM | IC50 (Human Calpain 2/NS1): < 3 µM

Structure (SMILES): Cc1cc(C(=O)N[C@@H](Cc2ccccc2)C(=O)C(N)=O)n(-c2cccc(COc3ccccc3)c2)n1 [Compound 231, (S)—N-(4-amino-3,4-dioxo-1-phenylbutan-2-yl)-3-methyl-1-(3-(phenoxymethyl)phenyl)-1H-pyrazole-5-carboxamide]
IC50 [1, 4]: > 25 µM | IC50 ([2]; Column E): > 25 µM | IC50 (Human Calpain 1/NS1; Column A): < 3 µM | IC50 (Human Calpain 9/NS1; Column C): < 3 µM | IC50 (Human Calpain 2/NS1; Column B): < 3 µM

Structure (SMILES): CCCCC(NC(=O)c1oc(C)nc1-c1ccccc1)C(=O)C(=O)NC1CC1 (stereo not drawn) [Compound 460, N-(1-(cyclopropylamino)-1,2-dioxoheptan-3-yl)-2-methyl-4-phenyloxazole-5-carboxamide]
IC50 [1, 3]: > 25 µM | IC50 [2]: > 25 µM | IC50 (Human Calpain 1/NS1): < 3 µM | IC50 (Human Calpain 9/NS1): < 3 µM | IC50 (Human Calpain 2/NS1): < 3 µM

Structure (SMILES): COCCOCCOc1cccc(-n2nc(C)cc2C(=O)NC(Cc2ccccc2)C(=O)C(N)=O)c1 (stereo not drawn) [Compound 444, N-(4-amino-3,4-dioxo-1-phenylbutan-2-yl)-1-(3-(2-(2-methoxyethoxy)ethoxy)phenyl)-3-methyl-1H-pyrazole-5-carboxamide]
IC50 [1, 3]: 10 to 25 µM | IC50 [2]: < 10 µM | IC50 (Human Calpain 1/NS1): < 3 µM | IC50 (Human Calpain 9/NS1): < 3 µM | IC50 (Human Calpain 2/NS1): < 3 µM

Structure (SMILES): Cc1csc(-c2nn(C)cc2C(=O)NC(Cc2ccccc2)C(=O)C(N)=O)c1 (stereo not drawn) [Compound 504, N-(4-amino-3,4-dioxo-1-phenylbutan-2-yl)-1-methyl-3-(4-methylthiophen-2-yl)-1H-pyrazole-4-carboxamide]
IC50 [1, 3]: > 25 µM | IC50 [2]: > 25 µM | IC50 (Human Calpain 1/NS1): < 3 µM | IC50 (Human Calpain 9/NS1): < 3 µM | IC50 (Human Calpain 2/NS1): < 3 µM

Structure (SMILES): NC(=O)C(=O)[C@H](Cc1ccccc1)NC(=O)c1c(-c2ccccc2)oc2ccccc12 [Compound 249, (S)—N-(4-amino-3,4-dioxo-1-phenylbutan-2-yl)-2-phenylbenzofuran-3-carboxamide]
IC50 [1, 4]: 10 to 25 µM | IC50 ([2]; Column E): > 25 µM | IC50 (Human Calpain 1/NS1; Column A): < 3 µM | IC50 (Human Calpain 9/NS1; Column C): < 3 µM | IC50 (Human Calpain 2/NS1; Column B): < 3 µM

Next, values leading:

IC50 [1, 3]: 10 to 25 µM | IC50 [2]: < 10 µM | IC50 (Human Calpain 1/NS1): < 3 µM | IC50 (Human Calpain 9/NS1): < 3 µM | IC50 (Human Calpain 2/NS1): < 3 µM
Structure (SMILES): Cn1cc(C(=O)N[C@@H](Cc2ccc(O)cc2)C(=O)C(N)=O)c(-c2ccccc2)n1 [Compound 421, (S)—N-(4-amino-1-(4-hydroxyphenyl)-3,4-dioxobutan-2-yl)-1-methyl-3-phenyl-1H-pyrazole-4-carboxamide]

IC50 [1, 3]: 10 to 25 µM | IC50 [2]: < 10 µM | IC50 (Human Calpain 1/NS1): < 3 µM | IC50 (Human Calpain 9/NS1): < 3 µM | IC50 (Human Calpain 2/NS1): < 3 µM
Structure (SMILES): Cn1cc(C(=O)NC(Cc2ccccc2)C(=O)C(N)=O)c(-c2ccoc2)n1 (stereo not drawn) [Compound 502, N-(4-amino-3,4-dioxo-1-phenylbutan-2-yl)-3-(furan-3-yl)-1-methyl-1H-pyrazole-4-carboxamide]

IC50 [1, 3]: 10 to 25 µM | IC50 [2]: > 25 µM | IC50 (Human Calpain 1/NS1): 3 to 10 µM | IC50 (Human Calpain 9/NS1): 3 to 10 µM | IC50 (Human Calpain 2/NS1): < 3 µM
Structure (SMILES): Cc1cc(C(=O)N[C@@H](Cc2ccccc2)C(=O)CF)n(-c2cnccn2)n1 [Compound 477, (S)—N-(4-fluoro-3-oxo-1-phenylbutan-2-yl)-3-methyl-1-(pyrazin-2-yl)-1H-pyrazole-5-carboxamide]

IC50 [1, 3]: < 10 µM | IC50 [2]: > 25 µM | IC50 (Human Calpain 1/NS1): < 3 µM | IC50 (Human Calpain 9/NS1): < 3 µM | IC50 (Human Calpain 2/NS1): < 3 µM
Structure (SMILES): O=CC(Cc1ccccc1)NC(=O)c1nsnc1-c1ccccc1 (stereo not drawn) [Compound 401, N-(1-oxo-3-phenylpropan-2-yl)-4-phenyl-1,2,5-thiadiazole-3-carboxamide]

IC50 [1, 3]: 10 to 25 µM | IC50 [2]: < 10 µM | IC50 (Human Calpain 1/NS1): < 3 µM | IC50 (Human Calpain 9/NS1): < 3 µM | IC50 (Human Calpain 2/NS1): < 3 µM
Structure (SMILES): CCn1cc(C(=O)NC(Cc2ccccc2)C(=O)C(N)=O)c(-c2ccccc2F)n1 (stereo not drawn) [Compound 469, N-(4-amino-3,4-dioxo-1-phenylbutan-2-yl)-1-ethyl-3-(2-fluorophenyl)-1H-pyrazole-4-carboxamide]

IC50 [1, 3]: 10 to 25 µM | IC50 [2]: 10 to 25 µM | IC50 (Human Calpain 1/NS1): < 3 µM | IC50 (Human Calpain 9/NS1): < 3 µM | IC50 (Human Calpain 2/NS1): < 3 µM
Structure (SMILES): NC(=O)C(=O)C(Cc1ccccc1)NC(=O)c1cc(C(F)(F)C(F)(F)F)nn1-c1ccccc1 (stereo not drawn) [Compound 342, N-(4-amino-3,4-dioxo-1-phenylbutan-2-yl)-3-(perfluoroethyl)-1-phenyl-1H-pyrazole-5-carboxamide]

IC50 [1, 3]: < 10 µM | IC50 [2]: < 10 µM | IC50 (Human Calpain 1/NS1): < 3 µM | IC50 (Human Calpain 9/NS1): < 3 µM | IC50 (Human Calpain 2/NS1): < 3 µM
Structure (SMILES): NC(=O)C(=O)C(Cc1ccccc1)NC(=O)c1cn(C(F)F)nc1-c1cccc2c1OCO2 (stereo not drawn) [Compound 563, N-(4-amino-3,4-dioxo-1-phenylbutan-2-yl)-3-(benzo[d][1,3]dioxol-4-yl)-1-(difluoromethyl)-1H-pyrazole-4-carboxamide]

IC50 [1, 3]: < 10 µM | IC50 [2]: < 10 µM | IC50 (Human Calpain 1/NS1): < 3 µM | IC50 (Human Calpain 9/NS1): < 3 µM | IC50 (Human Calpain 2/NS1): < 3 µM
Structure (SMILES): Cc1ccc(F)c(-c2nn(C(F)F)cc2C(=O)NC(Cc2ccccc2)C(=O)C(N)=O)c1 (stereo not drawn) [Compound 564, N-(4-amino-3,4-dioxo-1-phenylbutan-2-yl)-1-(difluoromethyl)-3-(2-fluoro-5-methylphenyl)-1H-pyrazole-4-carboxamide]
